Experimental data as given in patent US20090117205A1, “Quinolone-containing medicinal composition” (Daiichi Pharmaceutical CO., LTD, priority 2004, published 2009).
Values after ≈ are worked out from the molar mass of the structure shown. Like-named read-outs stand apart in the source and are kept apart here.

Legend:
Type in all cases: physicochemical
[1] = Solubility of Compound (1) in water with change in pH
Experimental: Change in solubility with the change in pH of the drug solution of the Compound (1) was measured by the method commonly used in the art.

[2] = Stability test of the lyophilized product produced from drug solution of different pH
Text: Lyophilized products were produced from the drug solution of different pH according to the evaluation of pH of the drug solution used for the lyophilization (1) to evaluate the stability of the Compound (1).

[3] = Evaluation of the concentration of the drug solution used for the lyophilization (cake formation)
[4] = lyophilized product from drug solution pH 2.5, 60° C., 1 W
[5] = lyophilized product from drug solution pH 2.5, 60° C., 2 W
[6] = lyophilized product from drug solution pH 2.5, Initial
[7] = lyophilized product from drug solution pH 3.5, 60° C., 1 W
[8] = lyophilized product from drug solution pH 3.5, 60° C., 2 W
[9] = lyophilized product from drug solution pH 3.5, Initial
[10] = lyophilized product from drug solution pH 4.5, 60° C., 1 W
[11] = lyophilized product from drug solution pH 4.5, 60° C., 2 W
[12] = lyophilized product from drug solution pH 4.5, Initial

In the case of `COc1c(N2CC[C@@H](C3(N)CC3)C2)ccc2c(=O)c(C(=O)O)cn([C@@H]3C[C@@H]3F)c12` [Compound (1), 7-[3-(R)-(1-aminocyclopropyl)pyrrolidine-1-yl]-1-[2-(S)-fluoro-1-(R)-cyclopropyl]-1,4-dihydro-8-methoxy-4-oxoquinoline-3-carboxylic acid], the solubility at 1 week ([1]; aqueous buffer, 5° C., pH 3.5, after 1 W) is reported as ≤ 19.6 mg/mL, the solubility at 0 week ([1]; aqueous buffer, 5° C., pH 3.5, immediately after preparation) is reported as ≤ 20.1 mg/mL and the solubility at 1 week ([1]; aqueous buffer, 5° C., pH 4.0, after 1 W) is reported as 19 mg/mL (≈ 47.3 mM). For the same compound, the solubility at 0 week ([1]; aqueous buffer, 5° C., pH 4.0, immediately after preparation) was ≤ 20.1 mg/mL, the solubility at 1 week ([1]; aqueous buffer, 5° C., pH 4.5, after 1 W) was 18.8 mg/mL (≈ 46.8 mM) and the solubility at 0 week ([1]; aqueous buffer, 5° C., pH 4.5, immediately after preparation) was ≤ 20 mg/mL. The solubility at 1 week ([1]; aqueous buffer, 5° C., pH 5.0, after 1 W) was 18.4 mg/mL (≈ 45.8 mM), the solubility at 1 week ([1]; aqueous buffer, 5° C., pH 5.5, after 1 W) was 5.4 mg/mL (≈ 13.5 mM) and the solubility at 1 week ([1]; aqueous buffer, 5° C., pH 6.0, after 1 W) was 0.7 mg/mL (≈ 1.74 mM). The solubility at 1 week ([1]; aqueous buffer, 25° C., pH 3.5, after 1 W) was ≤ 20.1 mg/mL, the solubility at 0 week ([1]; aqueous buffer, 25° C., pH 3.5, immediately after preparation) was ≤ 20.1 mg/mL and the solubility at 1 week ([1]; aqueous buffer, 25° C., pH 4.0, after 1 W) was 19.6 mg/mL (≈ 48.8 mM). For the same compound, the solubility at 0 week ([1]; aqueous buffer, 25° C., pH 4.0, immediately after preparation) was ≤ 20.1 mg/mL, the solubility at 1 week ([1]; aqueous buffer, 25° C., pH 4.5, after 1 W) was 20.1 mg/mL (≈ 50.1 mM) and the solubility at 0 week ([1]; aqueous buffer, 25° C., pH 4.5, immediately after preparation) was ≤ 20.1 mg/mL. The solubility at 1 week ([1]; aqueous buffer, 25° C., pH 5.0, after 1 W) was 18.7 mg/mL (≈ 46.6 mM), the solubility at 1 week ([1]; aqueous buffer, 25° C., pH 5.5, after 1 W) was 4.8 mg/mL (≈ 12 mM) and the solubility at 1 week ([1]; aqueous buffer, 25° C., pH 6.0, after 1 W) was 0.7 mg/mL (≈ 1.74 mM). For the same compound, the solubility ([1]; aqueous buffer, pH up to pH 5, read-out: Concentration that can be attained in the solution) was ≥ 10 mg/mL, the solubility ([1]; pH 4.5, aqueous buffer, pH up to 4.5, read-out: Concentration that can be attained in the solution) was ≥ 20 mg/mL and the “Stability of the Compound (1) in the lyophilized products” value ([2]; drug solution at a pH in the range of 2.5 to 4.5) was “sufficient stability”. The Appearance [2, 4] was “Yellow”, the “Content in relation to Initial amount (%)” value [2, 4] was 100.8% and the “Content in relation to Nominal amount (%)” value [2, 4] was 96.0%. The “Total amount of related substance (%)” value [2, 4] was 0.95%, the pH [2, 4] was 2.97 and the Appearance [2, 5] was “Yellow”. For the same compound, the “Content in relation to Initial amount (%)” value [2, 5] was 96.5%, the “Content in relation to Nominal amount (%)” value [2, 5] was 91.9% and the “Total amount of related substance (%)” value [2, 5] was 1.10%. For the same compound, the pH [2, 5] was 3.05, the Appearance [2, 6] was “Yellow” and the “Content in relation to Initial amount (%)” value [2, 6] was 100.0%. The “Content in relation to Nominal amount (%)” value [2, 6] was 95.3%, the “Total amount of related substance (%)” value [2, 6] was 0.92% and the pH [2, 6] was 2.89. For the same compound, the Appearance [2, 7] was “Yellow”, the “Content in relation to Initial amount (%)” value [2, 7] was 99.4% and the “Content in relation to Nominal amount (%)” value [2, 7] was 96.0%. For the same compound, the “Total amount of related substance (%)” value [2, 7] was 0.96%, the pH [2, 7] was 3.81 and the Appearance [2, 8] was “Yellow”. The “Content in relation to Initial amount (%)” value [2, 8] was 99.7%, the “Content in relation to Nominal amount (%)” value [2, 8] was 96.2% and the “Total amount of related substance (%)” value [2, 8] was 1.17%. For the same compound, the pH [2, 8] was 3.86, the Appearance [2, 9] was “Yellow” and the “Content in relation to Initial amount (%)” value [2, 9] was 100.0%. For the same compound, the “Content in relation to Nominal amount (%)” value [2, 9] was 96.5%, the “Total amount of related substance (%)” value [2, 9] was 0.93% and the pH [2, 9] was 3.73. For the same compound, the Appearance [2, 10] was “Yellow”, the “Content in relation to Initial amount (%)” value [2, 10] was 97.8% and the “Content in relation to Nominal amount (%)” value [2, 10] was 91.1%. The “Total amount of related substance (%)” value [2, 10] was 1.13%, the pH [2, 10] was 4.51 and the Appearance [2, 11] was “Yellow”. For the same compound, the “Content in relation to Initial amount (%)” value [2, 11] was 100.5%, the “Content in relation to Nominal amount (%)” value [2, 11] was 93.5% and the “Total amount of related substance (%)” value [2, 11] was 1.31%. The pH [2, 11] was 4.53, the Appearance [2, 12] was “Yellow” and the “Content in relation to Initial amount (%)” value [2, 12] was 100.0%. The “Content in relation to Nominal amount (%)” value [2, 12] was 93.1%, the “Total amount of related substance (%)” value [2, 12] was 0.93% and the pH [2, 12] was 4.47. For the same compound, the “Cake formation (number of vials with cake formation/number of vials tested)” value ([3]; drug solution 1.25 mg/mL) was 0/5, the “Cake formation (number of vials with cake formation/number of vials tested)” value ([3]; drug solution 2.5 mg/mL) was 4/5 and the “Cake formation (number of vials with cake formation/number of vials tested)” value ([3]; drug solution 5 mg/mL) was 4/5. The “Cake formation (number of vials with cake formation/number of vials tested)” value ([3]; drug solution 10 mg/mL) was 5/5, the “Cake formation (number of vials with cake formation/number of vials tested)” value ([3]; drug solution 15 mg/mL) was 5/5 and the “Cake formation (number of vials with cake formation/number of vials tested)” value ([3]; drug solution 20 mg/mL) was 5/5.
